Activity calls are given as the source filed them. The rule behind the calls is not given here.

The test system of data set [1] is PANC-1. The data set is described as follows: Effect on H3K27me1 level in human PANC-1 cells at 0.04 to 10 uM measured after 24 hrs by Western blot analysis. Format: functional, cell-based. As to conditions: dose 0.04-10 µM. A general note: In western blotting, separated proteins are transferred to a membrane and probed.
Data set [2] relates to PANC-1. The data set is described as follows: Effect on H3K79me3 level in human PANC-1 cells at 0.04 to 10 uM measured after 24 hrs by Western blot analysis. Type of data set: functional, cell-based. As to conditions: dose 0.04-10 µM.
Another data set deals with Panc1005. The data set is described as follows: Antiproliferative activity against human Panc1005 cells assessed as inhibition of cell growth measured after 72 hrs by SRB assay. Type of data set: functional, cell-based. Background: In SRB staining, fixed cells bind dye roughly in proportion to their protein.
Data set [3] concerns PANC-1. The experiment in a line: Effect on cell cycle arrest in human PANC-1 cells at 5 to 10 uM measured after 24 hrs by RNaseA/PI staining based flow cytometry analysis. Type of data set: functional. As to conditions: dose 5-10 µM.
A further data set concerns KP-4. The data set is described as follows: Induction of apoptosis in human KP-4 cells at 10 uM incubated for 24 hrs in presence of 5 uM MRTX1133 by Annexin V-FITC/PI staining based flow cytometry analysis. Format: functional, cell-based. (In general: Flow cytometry measures light scatter and fluorescence of single cells or particles in a stream.)
The subject of the next data set is HPAF-II. The data set is described as follows: Synergistic antiproliferative activity against human HPAF-II cells assessed as combination index for ED90 upto 20 uM incubated for 72 hrs in presence of MRTX1133. Format: functional.
Data set [4] relates to PANC-1. The data set is described as follows: Effect on GSPT1 level in human PANC-1 cells at 0.008 to 10 uM measured after 8 hrs by western blot analysis. Format: functional, cell-based. The settings on record: dose 0.008-10 µM.
The test system of the next data set is PANC-08-13. The data set is described as follows: Antiproliferative activity against human PANC-08-13 cells assessed as inhibition of cell growth measured after 72 hrs by SRB assay. Format: functional, cell-based.
For data set [5], the system named is PANC-1. The data set is described as follows: Downregulation of H3K9me2 level in human PANC-1 cells measured after 24 hrs by Western blot analysis. Format: functional, cell-based. The settings on record: dose 0.04-10 µM.
The test system of data set [6] is ASPC1. The data set is described as follows: Sensitization of human ASPC1 cells to MRTX1133 assessed as upregulation of cleaved PARP level at 10 uM incubated for 24 hrs in presence of 1 uM MRTX1133 by Western blot analysis. Format: functional, cell-based.
The test system of data set [7] is ASPC1. The data set is described as follows: Sensitization of human ASPC1 cells to MRTX1133 assessed as upregulation of gammaH2AX level at 10 uM incubated for 24 hrs in presence of 1 uM MRTX1133 by Western blot analysis. Type of data set: functional, cell-based.
Data set [8] has as its target T1, Protein cereblon/Histone-lysine N-methyltransferase EHMT1 (Homo sapiens) (UniProt Q9H9B1+Q96SW2). The data set is described as follows: PROTAC activity at CRBN/GLP in human PANC-1 cells assessed as induction of GLP degradation at 0.008 to 10 uM measured after 8 hrs by Western blot analysis. Type of data set: cell-based. As to conditions: dose 0.008-10 µM.
The test system of data set [9] is PANC-1. The data set is described as follows: Effect on CK1alpha level in human PANC-1 cells at 0.008 to 10 uM measured after 8 hrs by western blot analysis. Format: functional, cell-based. As to conditions: dose 0.008-10 µM.
The test system of data set [10] is PANC-1. The experiment in a line: Effect on G9a mRNA expression at transcriptional level in human PANC-1 cells at 0.1 to 10 uM by RT-qPCR analysis. Type of data set: functional, cell-based. The settings on record: dose 0.1-10 µM.
Data set [11] has as its target T1, Protein cereblon/Histone-lysine N-methyltransferase EHMT1 (Homo sapiens). The data set is described as follows: PROTAC activity at CRBN/GLP in human PANC-1 cells assessed as downregulation of GLP protein level at 1 uM measured after 8 hrs by quantitative proteomics analysis. Format: cell-based.
Data set [12] is described as follows: Bioavailability in male ICR mouse at 20 mg/kg, ip measured upto 24 hrs by LC-MS/MS analysis. The settings on record: in vivo. Format: ADME, organism-based.

T1 sequence (Q96SW2 whole entry, looked up): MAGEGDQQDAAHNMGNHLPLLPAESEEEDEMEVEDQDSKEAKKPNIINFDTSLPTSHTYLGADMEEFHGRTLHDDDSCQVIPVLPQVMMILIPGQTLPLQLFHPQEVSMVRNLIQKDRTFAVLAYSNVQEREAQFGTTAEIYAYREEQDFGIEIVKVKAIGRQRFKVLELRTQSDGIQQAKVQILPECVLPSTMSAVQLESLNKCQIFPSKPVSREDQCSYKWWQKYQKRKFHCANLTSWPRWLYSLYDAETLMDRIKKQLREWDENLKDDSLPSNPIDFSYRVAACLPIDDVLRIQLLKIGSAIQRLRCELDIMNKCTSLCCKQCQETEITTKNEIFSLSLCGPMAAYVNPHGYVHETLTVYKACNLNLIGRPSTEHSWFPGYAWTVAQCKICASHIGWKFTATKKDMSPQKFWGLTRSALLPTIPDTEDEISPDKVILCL
T1 sequence (Q9H9B1 whole entry, looked up): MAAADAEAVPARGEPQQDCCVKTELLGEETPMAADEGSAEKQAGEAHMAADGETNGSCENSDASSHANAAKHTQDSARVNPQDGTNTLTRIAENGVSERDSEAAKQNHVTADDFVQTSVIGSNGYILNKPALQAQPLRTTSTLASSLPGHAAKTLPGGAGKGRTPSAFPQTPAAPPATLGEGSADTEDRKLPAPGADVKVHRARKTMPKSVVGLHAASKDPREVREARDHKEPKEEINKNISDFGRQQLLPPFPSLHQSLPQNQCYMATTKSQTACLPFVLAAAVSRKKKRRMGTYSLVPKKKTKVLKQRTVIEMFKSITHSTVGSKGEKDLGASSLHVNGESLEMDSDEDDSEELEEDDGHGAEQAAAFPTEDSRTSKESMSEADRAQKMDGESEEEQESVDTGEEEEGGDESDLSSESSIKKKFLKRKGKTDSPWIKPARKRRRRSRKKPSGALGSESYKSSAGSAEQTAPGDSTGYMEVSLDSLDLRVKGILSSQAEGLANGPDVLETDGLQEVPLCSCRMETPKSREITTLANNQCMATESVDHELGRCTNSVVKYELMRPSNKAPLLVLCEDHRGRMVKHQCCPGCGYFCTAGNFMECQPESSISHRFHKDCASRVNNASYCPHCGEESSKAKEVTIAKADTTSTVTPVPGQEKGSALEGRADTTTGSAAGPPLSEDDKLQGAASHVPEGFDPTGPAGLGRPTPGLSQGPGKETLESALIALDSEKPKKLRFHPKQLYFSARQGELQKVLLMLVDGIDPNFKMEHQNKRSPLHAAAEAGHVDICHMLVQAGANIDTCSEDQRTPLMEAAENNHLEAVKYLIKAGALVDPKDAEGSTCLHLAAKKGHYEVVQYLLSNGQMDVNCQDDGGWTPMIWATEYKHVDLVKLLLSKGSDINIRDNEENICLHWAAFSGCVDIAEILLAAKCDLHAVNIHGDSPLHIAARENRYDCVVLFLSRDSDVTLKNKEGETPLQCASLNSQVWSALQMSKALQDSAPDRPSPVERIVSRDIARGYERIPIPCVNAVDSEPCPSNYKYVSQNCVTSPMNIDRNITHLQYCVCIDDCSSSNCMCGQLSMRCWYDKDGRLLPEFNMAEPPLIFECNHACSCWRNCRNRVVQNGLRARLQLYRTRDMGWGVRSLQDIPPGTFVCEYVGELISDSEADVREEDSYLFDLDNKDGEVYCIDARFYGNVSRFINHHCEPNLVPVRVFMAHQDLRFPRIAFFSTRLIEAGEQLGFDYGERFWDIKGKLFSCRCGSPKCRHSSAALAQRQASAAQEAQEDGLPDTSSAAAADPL

With `COc1cc2c(NC3CCN(CCCC(=O)NCCCCCCCCNc4cccc5c4C(=O)N(C4CCC(=O)NC4=O)C5=O)CC3)nc(C3CCCCC3)nc2cc1OCCCN1CCCC1` (stereo unspecified), the outcome (in the data set with PANC-1 [1]; in the data set with PANC-1 [2]; with PANC-1 [4]; in [8]; in the data set on PANC-1 [9]; in the data set on PANC-1 [10]) was inactive. Moreover, the result in data set [11] was inactive. Also, the outcome with Panc1005, in the data set with PANC-1 [3], in the data set on KP-4, in the data set on PANC-08-13, in the data set on PANC-1 [5] and in the data set with ASPC1 [6] was Active. For the same compound, in the data set with ASPC1 [7], the result was Active. For the same compound, the CI with HPAF-II is <0.4. For the same compound, the bioavailability in data set [12] was determined as 40.6%.

As usually defined, the bioavailability is dose-corrected exposure relative to a reference, in per cent.

(Values after ChEMBL document CHEMBL5523762, “Discovery of Potent and Selective G9a Degraders for the Treatment of Pancreatic Cancer” (J Med Chem, 2024).)
